In US8703437B2, “Fluorogenic sensors for phospholipase C isozymes” (The University of North Carolina at Chapel Hill, priority 2010, dated 2014) one finds Km and Vmax data, which are given here for one substance.

This assay concerns the target T1, PLC-γ1 (Homo sapiens, UniProt P19174).
T1 construct: addition of 4 ng of purified full-length wild-type PLC-γ1; made in house; host or cells: insect cells
T1 sequence (P19174 1-1290): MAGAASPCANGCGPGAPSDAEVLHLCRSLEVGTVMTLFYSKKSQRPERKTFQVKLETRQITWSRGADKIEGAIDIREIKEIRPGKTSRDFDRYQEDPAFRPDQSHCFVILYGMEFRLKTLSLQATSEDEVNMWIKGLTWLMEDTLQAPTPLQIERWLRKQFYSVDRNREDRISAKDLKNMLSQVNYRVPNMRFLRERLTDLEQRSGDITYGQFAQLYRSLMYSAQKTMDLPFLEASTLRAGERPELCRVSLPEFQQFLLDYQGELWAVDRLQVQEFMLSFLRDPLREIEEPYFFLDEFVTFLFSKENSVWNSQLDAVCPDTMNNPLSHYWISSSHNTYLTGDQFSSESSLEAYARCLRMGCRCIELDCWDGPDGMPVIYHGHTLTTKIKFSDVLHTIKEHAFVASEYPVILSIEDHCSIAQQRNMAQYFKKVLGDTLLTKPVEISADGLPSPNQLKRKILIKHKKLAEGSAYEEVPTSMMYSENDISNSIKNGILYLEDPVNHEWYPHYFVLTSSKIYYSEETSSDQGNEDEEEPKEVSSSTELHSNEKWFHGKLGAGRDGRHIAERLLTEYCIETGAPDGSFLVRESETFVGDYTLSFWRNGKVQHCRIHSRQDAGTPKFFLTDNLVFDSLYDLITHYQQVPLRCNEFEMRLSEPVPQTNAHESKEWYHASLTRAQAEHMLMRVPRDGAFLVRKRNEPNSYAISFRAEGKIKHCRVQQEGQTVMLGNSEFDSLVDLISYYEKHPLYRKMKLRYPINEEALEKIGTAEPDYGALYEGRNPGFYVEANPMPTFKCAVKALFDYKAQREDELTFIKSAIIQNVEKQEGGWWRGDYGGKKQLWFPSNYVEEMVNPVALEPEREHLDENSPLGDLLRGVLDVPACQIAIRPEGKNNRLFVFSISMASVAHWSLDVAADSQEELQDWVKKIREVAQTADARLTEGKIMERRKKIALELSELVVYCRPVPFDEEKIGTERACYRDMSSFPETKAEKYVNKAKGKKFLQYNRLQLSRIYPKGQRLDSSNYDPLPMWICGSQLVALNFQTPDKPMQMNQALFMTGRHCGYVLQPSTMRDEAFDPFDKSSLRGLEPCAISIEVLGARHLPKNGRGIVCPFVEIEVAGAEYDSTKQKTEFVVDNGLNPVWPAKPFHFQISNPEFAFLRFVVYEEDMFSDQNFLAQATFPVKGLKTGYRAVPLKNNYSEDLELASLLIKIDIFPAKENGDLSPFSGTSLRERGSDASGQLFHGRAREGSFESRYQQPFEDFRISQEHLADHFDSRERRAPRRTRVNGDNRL
Kind of assay: Kinetic studies with PLC-γ1. The class given is biochemical. As to conditions: endogenous substrate PIP2, [3H]PtdIns-(4,5)P2, liquid scintillation counting, 30° C. The protocol:
For comparison, the endogenous substrate, PIP2, was also applied in the enzymatic reaction under similar conditions.
The assays were started by the addition of 4 ng of purified full-length wild-type PLC-γ1. The reaction mixtures were then incubated at 30° C., and fluorescence was measured continuously as described above. For kinetic studies with the endogenous PIP2, a mixture of PtdIns-(4,5)P2 (300 μM, Avanti Polar Lipids) and ˜10,000 cpm of [^3H]PtdIns-(4,5)P2 was dried under a stream of nitrogen and resuspended in 0.5% cholate. The resulting lipid stock was diluted to obtain final assay conditions with either 280, 160, 80, 24, or 8 μM PtdIns(4,5)P2 in the same buffer as described above in a final volume of 60 μL. Assays were initiated by the addition of 17 ng of purified full-length wild-type PLC-γ1. After incubation at 30° C. at time intervals between 0-8 min, reactions were stopped by the addition of 200 μL of 10% (v/v) trichloroacetic acid (TCA) and 100 μL of 10 mg/mL BSA to precipitate uncleaved lipids and protein. Centrifugation of the reaction mixture isolated soluble [^3H]Ins(1,4,5)P3, which was quantified using liquid scintillation counting.

As usually defined, the Km is the concentration of substrate that gives half-maximal velocity. In general, Vmax refers to the top rate of the reaction or transport when substrate is in excess. Regarding “phosphatidylinositol 4,5-bisphosphate [PIP2]”, the Michaelis constant (Km) was 28 ± 2.6 µM and the Vmax is 2.7 ± 0.07 pmol/min/ng.
